According to EP4332093A1, “SALT CONTAINING PIPERAZINE POLYCYCLIC DERIVATIVE, CRYSTAL FORM THEREOF, PREPARATION METHOD THEREFOR, AND USE THEREOF” (Shanghai Hansoh Biomedical Co., Ltd., priority 2021, dated 2022):
Where a name gives a salt, the structure may show the parent alone.

Experiments:
Assay type in all cases: physicochemical
[1] = Grinding crystal transformation test; details: ground in a mortar for 5 min
[2] = Salt form quantification (HPLC-ELSD); details: Conclusion from Cl- content compared with theoretical values
Description: The number of acids binding in the salt form was quantified by HPLC-ELSD test. An appropriate amount of NaCl was weighed, and a series of linear solutions of different concentrations with the diluent acetonitrile-water (50:50) was prepared. […] The above linear solution and hydrochloride samples solution was taken to filter. [table]

[3] = Hygroscopicity experiment of crystal form A of hydrochloride
[4] = Crystal form stability study of hydrochloride for 30 days; details: 30 days; light 5000lux, 60°C, 92.5% RH, 40°C & 75% RH
Description: The diluent 80% methanol solution was added to prepare a solution containing about 0.5 mg/mL hydrochloride. The mixture was sonicated for 30min to produce a clear solution. 1mL of the soluion was filtered and measured by HPLC. See "2.3.4" for the HPLC analysis method. The content of related substances was calculated according to the peak area normalization method, and the results are shown in Table 32 below. Table 32 HPLC data of hydrochloride in stability experimental conditions for 30 days

[5] = Solid stability experiment of crystal forms of salt (5 and 10 days); details: all conditions: light 5000lx, 60°C, 92.5% RH, 50°C 75% RH; 5 and 10 days
Description: About 1 mg of different crystal forms of salt were taken and placed under the conditions of light 5000lx, high temperature 60°C, high humidity 92.5%RH, high temperature and high humidity 50°C 75%RH for 5 days and 10 days. The salt content was determined by HPLC and external standard method, and the change of relevant substances was calculated by chromatographic peak area normalization method.

[6] = Pressure crystal transformation test; details: tablet press at maximum pressure
From the text: The tablet press was adjusted to the maximum pressure. It was pressed into a tablet and then was subjected to PXRD characterization.

[7] = Thermodynamic stability experiment of crystal form (pulping in solvents, XRPD); details: for Results after pulping (crystal form by XRPD): pulped for 1 week at room temperature and 50°C
Description: An organic solvent with a certain solubility was selected. […] The supernatant was discarded, and the solid was dried in vacuum (-0.1 Mpa) overnight at 50°C. The XRPD of the solid was determined and compared with XRPD of raw compound salt.

O=C(N[C@H]1C[C@H](CCN2CCN(c3cccc(Cl)c3Cl)CC2)C1)c1ncco1 [crystal form A of hydrochloride]
crystal transformation before and after grinding (PXRD) [1]: didn't undergo crystal transformation | The number of hydrochloric acid binding [2]: The number of hydrochloric acid binding in crystal form A of hydrochloride is 1 | hygroscopicity [3]: slightly hygroscopic | XRPD pattern after humidification and dehumidification ([3]; 2 cycles, 0 to 95% relative humidity): does not change | hygroscopic weight gain ([3]; RH 80%): 0.509% | crystal form change (PXRD) [4]: does not undergo crystal form change | impurities (HPLC) [4]: do not increase significantly | crystal form stability (impurities) [5]: stable under all conditions | crystal transformation before and after pressure (PXRD) [6]: didn't undergo crystal transformation | Results after pulping (crystal form by XRPD) ([7]; 1,4-Dioxane): Crystal form A | crystal form after being pulped by different solvents (XRPD) ([7]; 1 week at room temperature and 50°C): the crystal form does not change | Results after pulping (crystal form by XRPD) ([7]; 2-Butanone): Crystal form A | Results after pulping (crystal form by XRPD) ([7]; 2-Methyl-tetrahydrofuran): Crystal form A | Results after pulping (crystal form by XRPD) ([7]; Acetone): Crystal form A | Results after pulping (crystal form by XRPD) ([7]; Acetonitrile): Crystal form A | Results after pulping (crystal form by XRPD) ([7]; Dichloromethane): Crystal form A | Results after pulping (crystal form by XRPD) ([7]; Ethanol): Crystal form A | Results after pulping (crystal form by XRPD) ([7]; Ethyl acetate): Crystal form A | Results after pulping (crystal form by XRPD) ([7]; Ethyl formate): Crystal form A | Results after pulping (crystal form by XRPD) ([7]; Isopropanol): Crystal form A | Results after pulping (crystal form by XRPD) ([7]; Methanol): Crystal form A | Results after pulping (crystal form by XRPD) ([7]; Methyl tert-butyl ether): Crystal form A | Results after pulping (crystal form by XRPD) ([7]; Tetrahydrofuran): Crystal form A | Results after pulping (crystal form by XRPD) ([7]; Toluene): Crystal form A | Results after pulping (crystal form by XRPD) ([7]; n-Heptane): Crystal form A
